Measurements as given in PMC3187749, “Discovery of Diverse Small Molecule Chemotypes with Cell-Based PKD1 Inhibitory Activity” (PLoS ONE, 2011).

Columns and labels:
[1] = molecular target: T1, PKD2 (Homo sapiens, UniProt Q9BZL6); test: Radiometric PKD2 in vitro kinase assay; format: biochemical; conditions: preliminary in vitro data
T1 sequence (Q9BZL6 1-878): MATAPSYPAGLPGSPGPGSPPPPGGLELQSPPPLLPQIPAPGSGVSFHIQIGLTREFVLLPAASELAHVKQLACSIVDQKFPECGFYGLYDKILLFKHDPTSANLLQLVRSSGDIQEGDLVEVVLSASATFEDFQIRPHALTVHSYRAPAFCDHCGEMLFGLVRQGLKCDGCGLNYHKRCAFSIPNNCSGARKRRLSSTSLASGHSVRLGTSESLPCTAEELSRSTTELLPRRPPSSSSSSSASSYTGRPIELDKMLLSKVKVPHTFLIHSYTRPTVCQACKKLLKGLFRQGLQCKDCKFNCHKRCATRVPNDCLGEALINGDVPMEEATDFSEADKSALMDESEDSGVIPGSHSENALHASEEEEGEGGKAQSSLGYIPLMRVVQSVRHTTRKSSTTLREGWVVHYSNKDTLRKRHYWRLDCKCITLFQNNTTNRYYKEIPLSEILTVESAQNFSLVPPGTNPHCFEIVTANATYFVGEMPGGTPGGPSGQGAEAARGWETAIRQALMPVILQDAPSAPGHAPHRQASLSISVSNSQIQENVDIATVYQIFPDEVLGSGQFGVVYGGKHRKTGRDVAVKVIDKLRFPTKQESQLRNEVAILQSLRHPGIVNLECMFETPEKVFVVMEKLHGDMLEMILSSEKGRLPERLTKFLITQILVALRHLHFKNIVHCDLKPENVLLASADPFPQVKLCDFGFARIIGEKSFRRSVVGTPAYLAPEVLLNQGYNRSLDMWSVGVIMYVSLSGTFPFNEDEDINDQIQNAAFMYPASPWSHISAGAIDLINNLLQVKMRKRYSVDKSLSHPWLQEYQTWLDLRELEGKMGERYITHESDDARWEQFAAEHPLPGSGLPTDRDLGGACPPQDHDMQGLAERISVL
Procedure: (§1) Kinase reactions were initiated with the addition of ATP (50 µM ATP, 1.0 µCi γ-^33P-ATP; Perkin Elmer, Boston, MA) and incubated for 20 min at 30°C. Twenty-five µL of the reaction was spotted onto Whatman P81 filter paper (Whatman Inc., Clifton, NJ). Filter papers were then washed three times in 0.5% phosphoric acid, air-dried, and counted using an LS6500 multi-purpose scintillation counter (Beckman Coulter, Fullerton, CA). IC50 determinations were performed using GraphPad Prism software 5.0. Radiometric PKD2 and PKD3 in vitro kinase assays were performed as previously described.

[2] = molecular target: T2, PKD3 (Homo sapiens, UniProt O94806); test: Radiometric PKD3 in vitro kinase assay; format: biochemical; conditions: preliminary in vitro data
T2 sequence (O94806 1-890): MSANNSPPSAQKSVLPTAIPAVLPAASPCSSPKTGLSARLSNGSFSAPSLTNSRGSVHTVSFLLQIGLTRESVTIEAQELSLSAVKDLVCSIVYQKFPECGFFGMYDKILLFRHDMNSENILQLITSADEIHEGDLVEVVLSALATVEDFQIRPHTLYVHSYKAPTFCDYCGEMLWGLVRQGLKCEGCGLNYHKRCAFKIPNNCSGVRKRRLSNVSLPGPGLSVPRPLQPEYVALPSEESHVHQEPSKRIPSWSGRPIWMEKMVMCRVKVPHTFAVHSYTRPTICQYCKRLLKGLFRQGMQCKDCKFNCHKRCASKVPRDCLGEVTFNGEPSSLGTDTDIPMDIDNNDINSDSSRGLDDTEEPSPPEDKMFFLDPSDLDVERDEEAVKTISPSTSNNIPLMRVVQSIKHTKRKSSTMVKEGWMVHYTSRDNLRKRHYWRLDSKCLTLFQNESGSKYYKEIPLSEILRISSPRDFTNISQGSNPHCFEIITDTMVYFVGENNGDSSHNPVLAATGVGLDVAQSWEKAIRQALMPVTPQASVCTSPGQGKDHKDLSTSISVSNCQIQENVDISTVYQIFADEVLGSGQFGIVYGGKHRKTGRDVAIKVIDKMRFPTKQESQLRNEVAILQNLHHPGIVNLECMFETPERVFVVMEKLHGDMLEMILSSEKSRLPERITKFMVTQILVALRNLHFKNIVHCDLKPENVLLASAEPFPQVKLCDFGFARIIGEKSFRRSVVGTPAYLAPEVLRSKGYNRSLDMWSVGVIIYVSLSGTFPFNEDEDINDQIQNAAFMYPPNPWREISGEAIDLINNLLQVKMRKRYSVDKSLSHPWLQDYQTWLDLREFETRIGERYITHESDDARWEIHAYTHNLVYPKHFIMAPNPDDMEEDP
Procedure: as §1

O=C(Nc1ccc(CN2CCOCC2)cc1)c1ccc(-c2cccc(Cl)c2)o1 [CID 2011756, 5-(3-chlorophenyl)-N-[4-(morpholin-4-ylmethyl)phenyl]furan-2-carboxamide]
IC50 [1]: 600 ± 100 nM | IC50 [2]: 700 ± 200 nM
